What all share (format): cell-based
For experiment [1], the target named is T1, ERα (Homo sapiens, UniProt P03372).
T1 sequence (P03372 1-595): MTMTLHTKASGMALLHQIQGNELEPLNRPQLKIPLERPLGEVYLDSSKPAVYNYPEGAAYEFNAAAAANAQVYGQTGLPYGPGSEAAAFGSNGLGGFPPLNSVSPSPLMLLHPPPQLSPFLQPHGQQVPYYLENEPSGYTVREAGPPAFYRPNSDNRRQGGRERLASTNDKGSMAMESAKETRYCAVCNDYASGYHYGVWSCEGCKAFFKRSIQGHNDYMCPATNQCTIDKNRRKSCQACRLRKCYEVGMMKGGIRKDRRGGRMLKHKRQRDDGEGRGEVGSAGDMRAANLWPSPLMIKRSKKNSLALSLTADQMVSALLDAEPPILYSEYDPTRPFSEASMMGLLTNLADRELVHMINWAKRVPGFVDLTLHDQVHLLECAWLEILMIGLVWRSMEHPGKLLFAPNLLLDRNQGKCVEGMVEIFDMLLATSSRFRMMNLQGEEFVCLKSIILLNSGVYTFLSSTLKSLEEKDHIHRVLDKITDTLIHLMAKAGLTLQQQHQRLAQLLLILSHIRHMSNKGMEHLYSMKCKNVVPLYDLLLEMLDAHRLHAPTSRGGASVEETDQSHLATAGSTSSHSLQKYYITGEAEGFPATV
The experiment is described as follows: ERα degradation in MCF-7 cells (Western blot). Further details: host or cells: MCF-7. The note with it: 4 hours. The procedure, abridged:
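ERα degradation was quantified by immunoblot densitometry, ERα signal divided by internal-reference signal and compared with control. Compounds were applied to MCF-7 cells for 4 hours at final concentrations of 0.15–1000 nM, with 20 µg total protein loaded per lane.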
(In general: A western blot detects proteins with antibodies after separation by electrophoresis.)

The test system of the next experiment is MCF-7 cells. Put plainly: Inhibition of cell proliferation in MCF-7 cells (CCK-8). The note with it: MCF-7 cell proliferation, 6 days treatment. An outline of the steps:
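IC50 from CCK-8 viability-based inhibition after 6-day treatment of MCF-7 cells (800 cells/well, 10% FBS DMEM, 37 °C, 5% CO2) with serially varied compound concentrations.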

A further experiment has as its system T-47D cells. Put plainly: Inhibition of cell proliferation in T-47D cells (CCK-8). The note with it: 6 days treatment, CCK-8 cell viability. An outline of the steps: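 Viability by CCK-8 after a 6-day, 37 °C/5% CO2 exposure of T-47D cells (3,000/well, RPMI-1640 + 10% FBS) to graded PROTAC concentrations. Inhibition rates gave the IC50.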
The target of experiment [2] is T1, ERα. Put plainly: ERα degradation in T-47D cells (Western blot). The settings on record: 4 hours. The procedure, abridged:
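ERα was quantified by immunoblot of RIPA lysates (20 µg total protein), normalised to an internal reference band, and degradation was expressed against control. Lysates came from T-47D cells plated at 3×10^5 cells/well and dosed 4 hours at 37°C with compound at 0.15-1000 nM final concentration.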

Regarding `O=C1CCC(N2Cc3c(ccc4c3OCC43CCC4(CC3)CN(C3CCC5(CC3)CN(c3ccc([C@@H]6c7ccc(O)cc7CC[C@@H]6c6ccccc6)cc3)C5)C4)C2=O)C(=O)N1` (stereo partly drawn) [ER-P-10, 3-(1-(2-(4-((1R,2S)-6-hydroxy-2-phenyl-1,2,3,4-tetrahydronaphthalen-1-yl)phenyl)-2-azaspiro[3.5]nonan-7-yl)-6'-oxo-6',8'-dihydro-2'H,7'H-dipyrazole[azetidine-3,1'-cyclohexane-4',3"-furo[2,3-e]isoindol]-7'-yl)piperidine-2,6-dione], the “Degradation rate of ERα in MCF-7 cells (%)” value at ERα [1] (1nM) turned out to be 24%; at ERα [1] (10nM) it was 57%. For the same compound, the half-maximal inhibitory concentration (IC50) (usually the point on the concentration scale where inhibition reaches its midpoint) in the experiment on MCF-7 cells (Homo sapiens, MCF7, 144 h) turned out to be 8.53 nM; in the experiment with T-47D cells (Homo sapiens, T47D, 144 h) it was 1.63 nM. For the same compound, the “Degradation rate of ERα in T-47D cells (%)” value on ERα [2] (1nM) was 51%; at ERα [2] (10nM) it was 77%.

Take `CN(c1ccc2c(c1)OCC21CCN(C[C@H]2CC[C@@H](OC3CCN(c4ccc([C@@H]5c6ccc(O)cc6CC[C@@H]5c5ccccc5)cc4)CC3)CC2)CC1)C1CCC(=O)NC1=O` (stereo partly drawn) [ER-P-32, 3-((1'-(((1S,4s)-4-((1-(4-((1R,2S)-6-hydroxy-2-phenyl-1,2,3,4-tetrahydronaphthalen-1-yl)phenyl)piperidin-4-yl)oxy)cyclohexyl)methyl)-2H-spiro[benzofuran-3,4'-piperidin]-6-yl)(methyl)amino)piperidine-2,6-dione]: the “Degradation rate of ERα in MCF-7 cells (%)” value at ERα [1] (1nM) was 12%; at ERα [1] (10nM) it was 13%. The IC50 with MCF-7 cells (Homo sapiens, MCF7, 144 h) came out at 705 nM; in the experiment on T-47D cells (Homo sapiens, T47D, 144 h), 19.5 nM. The results for the “Degradation rate of ERα in T-47D cells (%)” value on ERα [2] (1nM) and on ERα [2] (10nM) were -2% and 15%, respectively.

Consider `O=C1CCC(Nc2ccc3c(c2)COC[C@H]2CN(C[C@H]4CC[C@@H](OC5CCN(c6ccc([C@@H]7c8ccc(O)cc8CC[C@@H]7c7ccccc7)cc6)CC5)CC4)CCN32)C(=O)N1` (stereo partly drawn) [ER-P-34, 3-(((R)-3-(((1S,4S)-4-((1-(4-((1R,2S)-6-hydroxy-2-phenyl-1,2,3,4-tetrahydronaphthalen-1-yl)phenyl)piperidin-4-yl)oxy)cyclohexyl)methyl)-1,2,3,4,4a,5-hexahydro-7H-benzo[e]pyrazino[2,1-c][1,4]oxazepin-9-yl)amino)piperidine-2,6-dione], for which the “Degradation rate of ERα in MCF-7 cells (%)” value turned out to be 5% at ERα [1] (1nM) and 17% on ERα [1] (10nM). The concentration for half-maximal inhibition (IC50) in the experiment with MCF-7 cells (Homo sapiens, MCF7, 144 h) was found to be 2120 nM; in the experiment with T-47D cells (Homo sapiens, T47D, 144 h), 26.9 nM. For the same compound, the “Degradation rate of ERα in T-47D cells (%)” value came out at 15% at ERα [2] (1nM) and 24% on ERα [2] (10nM).

With `COc1cc2c(cc1C(=O)N[C@H]1CCC(=O)NC1=O)N(C)C[C@H]1CN(CC3CCC(OC4CCN(c5ccc([C@@H]6c7ccc(O)cc7CC[C@@H]6c6ccccc6)cc5)CC4)CC3)CCN21` (stereo partly drawn) [ER-P-49, (R)-N-((S)-2,6-dioxopiperidin-3-yl)-3-(((1S,4S)-4-((1-(4-((1R,2S)-6-hydroxy-2-phenyl-1,2,3,4-tetrahydronaphthalen-1-yl)phenyl)piperidin-4-yl)oxy)cyclohexyl)methyl)-9-methoxy-6-methyl-2,3,4,4a,5,6-hexahydro-1H-pyrazino[1,2-a]quinoxaline-8-carboxamide], the results for the “Degradation rate of ERα in MCF-7 cells (%)” value at ERα [1] (1nM) and on ERα [1] (10nM) were -12% and 23%, respectively. Also, the half-maximal inhibitory concentration (IC50) in the experiment with MCF-7 cells was determined as 3730 nM; with T-47D cells it was 1.17 nM. Moreover, the “Degradation rate of ERα in T-47D cells (%)” value at ERα [2] (1nM) is recorded as -11%; at ERα [2] (10nM), 30%.

On to `O=C1CCC(Nc2ccc3c(c2)OC[C@@H]2CN(C4CC5(CCN(c6ccc([C@@H]7c8ccc(O)cc8CC[C@@H]7c7ccccc7)cc6)CC5)C4)CCN32)C(=O)N1` (stereo partly drawn) [ER-P-35], for which the “Degradation rate of ERα in MCF-7 cells (%)” value at ERα [1] (1nM) is on record as 6%; on ERα [1] (10nM), -3%. Besides, the IC50 in the experiment on MCF-7 cells (Homo sapiens, MCF7, 144 h) is 876 nM; in the experiment with T-47D cells (Homo sapiens, T47D, 144 h), 22.7 nM. Further, the “Degradation rate of ERα in T-47D cells (%)” value on ERα [2] (1nM) and on ERα [2] (10nM) was 21% throughout.

The values are drawn from patent EP4722219A1 (Gan & Lee Pharmaceuticals Co., Ltd., priority 2023, dated 2024).
